In brackets after ≈: the same amount, converted by molar mass. Like-named read-outs stand apart in the source and are kept apart here.
Assays:
[1] = system: cellular uptake of 1 in HeLa Kyoto cells; assay: cells; type: cell-based; details: HeLa; for IC50: read-out: IC50, inhibition of cellular uptake of 1; for minimal effective concentration: read-out: MIC, inhibition of cellular uptake of 1; for MIC (concentration that causes ∼15% reduction of reporter uptake), against reporter 1: pre-incubation time not given (Fig. 2: 1 h pre-incubation, 30 min with reporter; some 15 min)
Description: (§1) With COCs 1 and 2 as cell-penetrating reporters, a fully automated, fluorescent microscopy image-based high-content high-throughput (HCHT)[19] inhibitor screening assay was developed. HeLa cells in multiwell plates are incubated with a reporter at constant and inhibitors at varying concentrations and incubation times. Hindered reporter uptake then causes decrease of fluorescence inside of cells (Fig. 3a). Automated data analysis[19] was established to extract average fluorescence intensity per cell and, at the same time, cell viability from propidium iodide negative nuclei count (Fig. 3 and S3–S6 ^†). Standard assay conditions consisted of pre-incubation of HeLa cells with inhibitors for different periods of time, followed by the removal of inhibitors and the addition of reporters, thus excluding possible interactions between the two in the extracellular environment. In alternative co-incubation conditions, inhibitors were not removed before the addition of reporters to allow for eventual interactions between the two.
(§2) 4. High-Content High-Throughput (HCHT) Inhibitor Screening
(§3) 4.1. General Procedure for HCHT Inhibitor Screening
(§4) 4.1.1. Pre-Incubation of Inhibitors
(§5) HeLa Kyoto cells were seeded at 1.2 ×10^4 cells/well in FluoroBrite DMEM + 10% FBS on μ-Plate 96-well Black ibiTreat sterile and kept at 37 °C with 5% CO2 overnight. Next day, serial dilutions of the inhibitors in PBS (10x final concentration), reporter 1 or 2 (100 μM in PBS) and a solution of Hoechst 33342 (100 μg/mL) and PI (10 μg/mL) in PBS were prepared freshly in a 96-well V-bottom plate. Then, cells were washed with PBS ([…]) and the media was exchanged to FluoroBrite DMEM (4 x 150 μL/well) using a plate washer (Biotek EL406®), keeping always a final volume of 135 μL/well. The inhibitor solutions from the V-bottom plate were added to the cells (15 μL/well, 10x final concentration in PBS) using an electronic multichannel pipettes to reach a final volume of 150 μL/well. Cells were incubated for the time of interest (for details of each inhibitors, see Section 4.3 and 4.4) at 37 °C with 5%
(§6) CO2. After this, cells were washed again using the plate washer and reporter solution 1 or 2 from the V-bottom plate was added (15 μL/well) using an electronic multichannel pipettes to reach a final volume of 150 μL/well and a final concentration of 10 μM, except for the control wells, where only PBS was added (15 μL/well). After 30 min of incubation at 37 °C with 5% CO2, the plate was washed again using the plate washer. Then, the solution of Hoechst 33342 and PI from V-bottom plate was added (15 μL/well) using an electronic multichannel pipettes to reach a final volume of 150 μL/well. After 15 min of incubation at 37 °C with 5% CO2, the plate was washed one last time and the cells were kept in clean FluoroBrite DMEM. During imaging, samples were kept at 37 °C with 5% CO2 in the microscope.
(§7) 4.1.2. Co-Incubation of Inhibitors and Reporters […]
(§8) serial dilutions of the inhibitors in PBS (10x final concentration), reporter 1 or 2 (110 μM in […]
(§9) freshly in a 96-well V-bottom plate. Then, cells were washed with the plate washer. The inhibitor solutions from the V-bottom plate were added to the cells (15 μL/well, 10x final concentration in PBS) using an electronic multichannel pipettes to reach a final volume of 150 μL/well. Cells were incubated for the time of interest (for details of each inhibitors, see Section 4.3 and 4.4) at 37 °C with 5% CO2. Reporter solution 1 or 2 from V-bottom plate was then added (15 μL/well) using an electronic multichannel pipettes to reach a final volume of 165 μL/well and a final concentration of 10 μM 30 min before the next washing process, except for the control wells, where only PBS was added (15 μL/well). The plate was washed again using the plate washer. The solution of Hoechst 33342 and PI from V-bottom plate was added (15 μL/well) using an electronic multichannel pipettes to reach a final volume of 150 μL/well. After […]

[2] = system: cellular uptake of 2 in HeLa Kyoto cells; assay: cells; type: cell-based; details: for IC50: HeLa Kyoto; for MIC against reporter 2: longer pre-incubation (Fig. 2: 4 h pre-incubation)
Description: as §1, §2, §3, §4, §5, §6, §7, §8, §9

[3] = HeLa Kyoto, 0.5 h, tpre 0.5 h, then tco 0.5 h co-incubation of inhibitor and 1 (10 µM)
[4] = HeLa Kyoto, 0.5 h, tpre 5.5 h with FBS, then tco 0.5 h co-incubation of inhibitor and 1 (10 µM)
[5] = HeLa Kyoto, 0.5 h, tpre 23.5 h with FBS, then tco 0.5 h co-incubation of inhibitor and 1 (10 µM)
[6] = HeLa Kyoto, 2 h, tpre 2 h with inhibitor, removal, tinc 0.5 h with 1 (10 µM)
[7] = HeLa Kyoto, 4 h, tpre 4 h with inhibitor, removal, tinc 0.5 h with 1 (10 µM)
[8] = HeLa Kyoto, tpre 5.5 h with FBS, then tco 0.5 h co-incubation of inhibitor and 1 (10 µM)
[9] = HeLa Kyoto, tpre 23.5 h with FBS, then tco 0.5 h co-incubation of inhibitor and 1 (10 µM)
[10] = tpre 1 h with inhibitor, removal, tinc 0.5 h with 1 (10 µM)
[11] = HeLa Kyoto, 0.5 h, tpre 0.5 h with inhibitor, removal, tinc 0.5 h with 1 (10 µM)
[12] = HeLa Kyoto, 1 h, tpre 1 h with inhibitor, removal, tinc 0.5 h with 1 (10 µM)
[13] = HeLa Kyoto, tpre 1 h with inhibitor, removal, tinc 0.5 h with 1 (10 µM)
[14] = HeLa Kyoto, tpre 2 h with inhibitor, removal, tinc 0.5 h with 1 (10 µM)
[15] = HeLa Kyoto, tpre 4 h with inhibitor, removal, tinc 0.5 h with 1 (10 µM)
[16] = 0.5 h, HeLa, tpre 0.5 h, then tco 0.5 h co-incubation of inhibitor and 2 (10 µM), read-out: IC50, inhibition of cellular uptake of 2
[17] = HeLa, tpre 1 h with inhibitor, removal, tinc 0.5 h with 2 (10 µM), read-out: IC50, inhibition of cellular uptake of 2
[18] = HeLa, tpre 6 h with FBS, removal, tinc 0.5 h with 2 (10 µM), read-out: IC50, inhibition of cellular uptake of 2
[19] = HeLa, tpre 0.5 h, then tco 0.5 h co-incubation of inhibitor and 2 (10 µM)
[20] = HeLa, tpre 1 h with inhibitor, removal, tinc 0.5 h with 2 (10 µM)
[21] = HeLa, tpre 4 h with inhibitor, removal, tinc 0.5 h with 2 (10 µM)
[22] = HeLa, tpre 6 h with FBS, removal, tinc 0.5 h with 2 (10 µM)
[23] = read-out: IC50, inhibition of cellular uptake of 2, HeLa, tpre 4 h with inhibitor, removal, tinc 0.5 h with 2 (10 µM)

Structure (SMILES)	IC50 [1, 3] [µM]	minimal effective concentration [1, 3] [µM]	minimal effective concentration [1, 4] [µM]	minimal effective concentration [1, 5] [µM]	minimal effective concentration [1, 6] [µM]	minimal effective concentration [1, 7] [µM]	IC50 [1, 8] [µM]	IC50 [1, 9] [µM]	IC50 [1, 11] [µM]	minimal effective concentration [1, 11] [µM]	minimal effective concentration [1, 12] [µM]	IC50 [1, 13] [µM]	IC50 [1, 14] [µM]	IC50 [1, 15] [µM]	IC50 [2, 16] [µM]	IC50 [2, 17] [µM]	IC50 [2, 18] [µM]	MIC, inhibition of cellular uptake of 2 [2, 19] [µM]	MIC, inhibition of cellular uptake of 2 [2, 21] [µM]	MIC, inhibition of cellular uptake of 2 [2, 22] [µM]	other results
[O-][S+]1CC(O)C(O)CS1 (centres unmarked) [compound 17]	> 500	100	250	150	300	250	> 1000	> 500	–	–	–	–	–	–	–	–	–	–	–	–	IC50 [1, 10]: > 500 µM; minimal effective concentration [1, 10]: 250 µM; IC50 ([1]; tpre 2 h with inhibitor, removal, tinc 0.5 h with 1 (10 µM)): > 500 µM; IC50 ([1]; tpre 4 h with inhibitor, removal, tinc 0.5 h with 1 (10 µM)): > 500 µM
CCN1C(=O)C2SSC1C(=O)N2CC(=O)O (centres unmarked) [compound 4]	2 ± 0.2	0.3	0.3	8.1	0.1	0.1	4.9 ± 0.5	66 ± 14	4.4 ± 1.3	< 0.1	0.1	1.1 ± 0.1	1.5 ± 0.1	2.1 ± 0.2	> 20	> 20	> 100	20	> 2	80	IC50 ([2]; HeLa, tpre 4 h with inhibitor, removal, tinc 0.5 h with 2 (10 µM), read-out: IC50, inhibition of cellular uptake of 2): > 2 µM; MIC, inhibition of cellular uptake of 2 [2, 20]: > 20 µM
CCN1C(=O)C2SSSSC1C(=O)N2CC(=O)O (centres unmarked) [compound 3]	2.7 ± 0.1	< 0.5	< 0.5	30	< 0.1	< 0.1	9.6 ± 1.2	> 50	1.7 ± 0.2	< 0.1	< 0.1	1.3 ± 0.2	2.7 ± 0.6	8.2 ± 3.2	> 20	> 20	> 100	17	–	40	MIC (concentration that causes ∼15% reduction of reporter uptake), against reporter 1 [1]: < 0.1 µM; MIC, inhibition of cellular uptake of 2 [2, 20]: > 20 µM
O=C(O)CNC(=O)c1ccc2c(c1)SSSSS2 [compound 6]	5.1 ± 0.3	0.5	5	12	0.4	0.4	20 ± 1	> 20	93 ± 28	0.3	0.3	35 ± 9	23 ± 6	24 ± 5	–	–	–	> 20	4	60	MIC (concentration that causes ∼15% reduction of reporter uptake), against reporter 1 [1]: ≈ 0.3 μM; IC50 ([2]; 0.5 h, read-out: IC50, inhibition of cellular uptake of 2, HeLa, tpre 0.5 h, then tco 0.5 h co-incubation of inhibitor and 2 (10 µM)): > 20 µM; IC50 [2, 23]: > 10 µM; IC50 ([2]; read-out: IC50, inhibition of cellular uptake of 2, HeLa, tpre 6 h with FBS, removal, tinc 0.5 h with 2 (10 µM)): > 100 µM; MIC against reporter 2 ([2]; HeLa): 4 µM (≈ 1.35 µg/mL)
O=S1(=O)C[C@H](O)[C@H](O)CS1 [compound 16]	–	–	10	150	–	–	150 ± 30	860 ± 60	–	–	200	> 1000	–	–	–	–	–	–	20	–	IC50 [2, 23]: 183 ± 18 µM; MIC against reporter 2 ([2]; HeLa): ~20 µM (≈ 3.68 µg/mL)

Source: publication PMC8179002, “Inhibitors of thiol-mediated uptake” (Chemical Science, 2020)
